Patent US6716854B2, “Treatments for restless legs syndrome” (Pfizer, Inc., priority 2000, dated 2004)
Counter-ions that a name gives are not always drawn.

Columns and labels:
RLS patients = conditions: cited from earlier work
[1] = in vivo; cited from earlier work
people with RLS = conditions: recent studies quoted from RLS Internet site; cited from earlier work

SMILES: CN[C@@H]1Cc2cccc3[nH]c(=S)n(c23)C1
- melting point: 210 to 213 °C

SMILES: CN[C@@H]1Cc2cccc3[nH]c(=S)n(c23)C1.O=C(O)/C=C\C(=O)O
- melting point: 195 to 196 °C

SMILES: N[C@@H](Cc1ccc(O)c(O)c1)C(=O)O [L-dopa]
- suppression of RLS (RLS patients; L-dopa 100 mg with carbidopa 10 mg, in most cases, rebound of PLMS in last part of night): completely suppresses RLS
- effect on RLS at bedtime and PLMS throughout the night (RLS patients; administered twice at night, PSG recordings, double-blind): significant reduction

SMILES: CCCN1C[C@H](CSC)C[C@@H]2c3cccc4[nH]cc(c34)C[C@H]21 [Pergolide]
- half-life [1]: 7 to 16 h

SMILES: CCCN1C[C@H](CSC)C[C@@H]2c3cccc4[nH]cc(c34)C[C@H]21 [Permax®, pergolide mesylate]
- effectiveness in treating RLS relative to Sinemet (people with RLS): as effective as Sinemet®
- potential for causing augmentation (people with RLS): 10%
